Source: PubChem BioAssay (NCI)
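GI50 marks 50% less growth. At the TGI there is no net growth.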

Legend:
Assay in all cases: inhibition of tumour cell growth, NCI panel, 384-well format
[1] = test system: 786-0 renal
[2] = test system: A549 NSCLC
[3] = test system: ACHN renal
[4] = test system: BT-549 breast
[5] = test system: HT29 colon
[6] = test system: LOX IMVI melanoma
[7] = test system: MCF7 breast
[8] = test system: MOLT-4 leukemia
[9] = test system: NCI-H226 lung
[10] = test system: NCI-H23 lung
[11] = test system: SF-295 CNS
[12] = test system: SNB-75 CNS
[13] = test system: UACC-62 melanoma

N#Cc1c(N)nc(N)nc1N[C@H](c1nc2c(F)ccc(Cl)c2c(=O)n1-c1cccnc1)C1CC1
GI50 [1]: 3.51 µM
TGI [1]: 24.4 µM
GI50 [2]: 9.47 µM
TGI [2]: 30.1 µM
GI50 [3]: 7.04 µM
TGI [3]: > 100 µM
GI50 [4]: 0.711 µM
TGI [4]: 12.9 µM
GI50 [5]: 13.4 µM
TGI [5]: 42 µM
GI50 [6]: 5.13 µM
TGI [6]: 18.6 µM
GI50 [7]: 2.73 µM
TGI [7]: > 100 µM
GI50 [8]: 1.54 µM
TGI [8]: 3.94 µM
GI50 [9]: 15.6 µM
TGI [9]: > 57.7 µM
GI50 [10]: 15.3 µM
TGI [10]: 54.8 µM
GI50 [11]: 2.37 µM
TGI [11]: 18.4 µM
GI50 [12]: 0.67 µM
TGI [12]: 5.1 µM
GI50 [13]: 3.23 µM
TGI [13]: 58.9 µM
